Legend:
[1] = target: T1, ErbB4 (Homo sapiens, UniProt Q15303); assay: phospho-ErbB4 sandwich ELISA: stimulation of ErbB4 tyrosine phosphorylation in CEM/ErbB4 cells; format: cell-based; details: for Emax: percentage of ErbB4 tyrosine phosphorylation stimulated by 10 nM NRG1β, read-out: ErbB4 Tyrosine Phosphorylation Emax ± SE; for EC50: semi-automated, 0–30 μM, at least three independent trials, read-out: ErbB4 Tyrosine Phosphorylation EC50 ± SE
T1 construct: expressed in transfected cells; host or cells: CEM/ErbB4 cells
T1 sequence (Q15303 26-1308): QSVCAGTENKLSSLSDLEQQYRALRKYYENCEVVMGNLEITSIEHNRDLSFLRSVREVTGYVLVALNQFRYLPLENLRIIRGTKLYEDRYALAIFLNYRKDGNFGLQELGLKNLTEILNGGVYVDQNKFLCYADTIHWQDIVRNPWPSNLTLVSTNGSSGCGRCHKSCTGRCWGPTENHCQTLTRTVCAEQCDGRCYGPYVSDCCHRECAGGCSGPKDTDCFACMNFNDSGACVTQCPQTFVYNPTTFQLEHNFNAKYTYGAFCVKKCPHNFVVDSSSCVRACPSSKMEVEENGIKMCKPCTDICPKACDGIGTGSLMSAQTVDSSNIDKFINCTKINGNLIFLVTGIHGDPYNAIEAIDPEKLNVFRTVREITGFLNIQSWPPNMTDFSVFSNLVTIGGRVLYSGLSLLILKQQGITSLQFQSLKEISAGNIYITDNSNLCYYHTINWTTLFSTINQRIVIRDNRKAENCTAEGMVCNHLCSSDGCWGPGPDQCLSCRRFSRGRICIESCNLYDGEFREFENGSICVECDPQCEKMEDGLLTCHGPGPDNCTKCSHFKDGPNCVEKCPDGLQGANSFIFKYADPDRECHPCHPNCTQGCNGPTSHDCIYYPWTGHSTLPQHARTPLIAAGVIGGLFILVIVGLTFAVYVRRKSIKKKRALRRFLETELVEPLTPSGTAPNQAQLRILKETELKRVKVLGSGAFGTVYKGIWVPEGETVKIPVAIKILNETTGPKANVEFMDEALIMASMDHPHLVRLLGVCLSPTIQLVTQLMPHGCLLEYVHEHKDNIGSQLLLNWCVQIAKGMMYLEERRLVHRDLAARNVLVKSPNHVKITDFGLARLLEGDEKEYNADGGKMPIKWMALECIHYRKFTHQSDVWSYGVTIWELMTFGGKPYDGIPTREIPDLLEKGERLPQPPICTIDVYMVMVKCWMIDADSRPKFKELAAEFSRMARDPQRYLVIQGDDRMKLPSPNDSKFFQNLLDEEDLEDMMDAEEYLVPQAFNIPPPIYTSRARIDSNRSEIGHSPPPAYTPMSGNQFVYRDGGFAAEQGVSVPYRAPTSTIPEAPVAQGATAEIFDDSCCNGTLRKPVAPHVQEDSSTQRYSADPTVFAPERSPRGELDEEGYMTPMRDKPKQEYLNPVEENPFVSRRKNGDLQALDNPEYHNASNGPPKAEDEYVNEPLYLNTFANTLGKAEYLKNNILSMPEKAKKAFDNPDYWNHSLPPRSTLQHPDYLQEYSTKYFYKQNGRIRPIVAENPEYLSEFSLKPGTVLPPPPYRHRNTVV
Description: Our ultimate goal is the identification of ErbB4 partial agonists that inhibit coupling of ErbB4 to cell proliferation, preferably through stimulation of phosphorylation-dependent ErbB4 turnover and degradation. Thus, the first goal of these experiments is to develop and deploy an assay for stimulation of ErbB4 tyrosine phosphorylation. The CEM/ErbB4 cell line previously validated for assaying ligand-induced ErbB4 tyrosine phosphorylation was used to develop a 96-well assay for stimulation and inhibition of ErbB4 tyrosine phosphorylation. Briefly, ErbB4 tyrosine phosphorylation was assayed using a “sandwich” enzyme-linked immunosorbent assay (ELISA) kit (R&D Systems) that features an anti-ErbB4 capture antibody and an anti-phosphotyrosine detection antibody.
Lysates generated by a previously established protocol for stimulating ErbB4 tyrosine phosphorylation in CEM/ErbB4 cells were used to develop and evaluate the ELISA conditions. Briefly, the CEM/ErbB4 cells were starved for 24 hours in serum- and factor-free base medium (RPMI) before being stimulated for seven minutes on ice with NRG2β (full agonist positive control), NRG2β/Q43L (partial agonist positive control), or NRG2β diluent (mock stimulation negative control). The cells were then lysed, and the lysates were immediately assayed for ErbB4 tyrosine phosphorylation or stored at -80°C until assayed.
Ligand-induced ErbB4 tyrosine phosphorylation was stimulated using a published protocol. Briefly, the CEM/ErbB4 cells were starved for 24 hours in serum- and factor-free base medium (RPMI) before being stimulated for 7 minutes on ice with an ErbB4 ligand (NRG1β, NRG2β, or NRG2β/Q43L) or candidate small molecule ErbB4 partial agonists. The cells were then lysed using a published protocol, and the lysates were immediately assayed for ErbB4 tyrosine phosphorylation or stored at -80°C until assayed.
ErbB4 tyrosine phosphorylation was analyzed using a 96-well “sandwich” enzyme-linked immunosorbent assay (ELISA) kit from R&D Systems (Catalog number DYC2115-2), which features an anti-ErbB4 capture antibody and an anti-phosphotyrosine antibody that is coupled to horseradish peroxidase (HRP). First, each well in a 96-well flat-bottom plate (ELISA plate) was coated with the anti-ErbB4 capture antibody, which recognizes the amino terminus of ErbB4. Nonspecific binding sites were then treated with a blocking buffer (1% BSA in PBS). Lysate samples containing ErbB4 were then added to the wells and incubated to permit ErbB4 binding to the immobilized anti-ErbB4 antibody. Then, an anti-phosphotyrosine antibody tagged with HRP was used to detect and visualize the phosphorylated tyrosine residues of the immobilized ErbB4 molecules. Oxidation of 3,3´,5,5´-tetramethylbenzidine by HRP (stopped using sulfuric acid) is indicative of ErbB4 tyrosine phosphorylation and was detected by measuring absorption at 450 nm. The data generated during the course of validating these assay conditions can be found in a (S1 Data).
A Beckman Coulter Biomek 4000 automated liquid handling system was used to convert our standard, batch method for agonist stimulation of ErbB4 tyrosine phosphorylation to a semi-automated 96-well methodology. […] After stimulation, lysis buffer was added to each well and incubated for 20 minutes at 4°C with shaking. Following incubation, the plates were centrifuged at 3200 RCF for 20 minutes at 4°C.

[2] = system: BaF3/EGFR+ErbB4 cells; assay: ErbB4-dependent (NRG1β-induced, IL3-independent) proliferation of BaF3/EGFR+ErbB4 cells, semi-automated MTT assay; format: cell-based, Mouse; details: for IC50: Mus musculus, BaF3, read-out: IC50 against 0.3 nM NRG1β, three independent trials; for IC50 / NRG1β Emax ± SE in the presence of candidate: 120 h MTT; for NRG1β Emax ± SE in the presence of candidate: increasing NRG1β, three trials; for selective and potent inhibition of ErbB4-dependent cell proliferation (in words): ErbB4-dependent versus IL3-dependent proliferation
Description: This proliferation is dependent upon exogenous ErbB4 expression.
As noted earlier, the BaF3/EGFR+ErbB4 cells are IL3 dependent and this dependency can be rescued by stimulation of ErbB4 coupling to cell proliferation. Therefore, the specificity of each of the 19 candidate ErbB4 inhibitors was tested by assaying inhibition of ErbB4-dependent and IL3-dependent cellular proliferation in parallel.

[3] = system: BaF3/EGFR+ErbB4 cells; assay: IL3-dependent proliferation of BaF3/EGFR+ErbB4 cells, semi-automated MTT assay; details: for IC50: Mus musculus, BaF3, 120 h; for IC50 against 0.1 nM IL3: three independent trials, 120 h MTT, NA = not active
Description: As noted earlier, the BaF3/EGFR+ErbB4 cells are IL3 dependent and this dependency can be rescued by stimulation of ErbB4 coupling to cell proliferation [8]. Therefore, the specificity of each of the 19 candidate ErbB4 inhibitors was tested by assaying inhibition of ErbB4-dependent and IL3-dependent cellular proliferation in parallel.

[4] = read-out: IC50 against 0.1 nM IL3
[5] = read-out: IC50 against 0.1 nM IL3, extrapolated value

Row | Emax [1] [%] | EC50 [1] [µM] | IC50 ([2]; NA = not active) [µM] | IC50 [3, 4] [µM] | IC50 ([2]; *Extrapolated value) [µM] | IC50 [3, 5] [µM] | IC50 against 0.1 nM IL3 [3] | Compound | NRG1β Emax ± SE in the presence of candidate ([2]; candidate 30 μM) [AU] | selective and potent inhibition of ErbB4-dependent cell proliferation (in words) [2] | inhibition of NRG1β-stimulated ErbB4-dependent proliferation (in words) ([2]; candidate 30 μM)
1 | 1.8 ± 0.2 | 4.1 ± 2.9 | 12 |  |  | 81 |  | O=C(CC1c2ccccc2Oc2ccccc21)NCCOc1ccccc1 [SR-33492] | 0.03 ± 0.01 | selectively and potently inhibit | 
2 | 2.7 ± 0.2 | < 0.3 | 6.8 |  |  | 2100 |  | O=C(Nc1cccc(O)c1)c1cc2nc(-c3ccccc3)cc(-c3ccccc3)n2n1 [SR-33487] | 0.07 ± 0.01 | selectively and potently inhibit | 
3 | 2.3 ± 0.4 | < 0.3 | 7 |  |  | 32 |  | O=C1NC2=Nc3ccccc3SC(c3ccccc3)=C2C(c2ccc(O)cc2)N1 (centres unmarked) [SR-33494] | 0 | selectively and potently inhibit | 
4 | 2.1 ± 3.8 | < 0.3 | 5.6 | 15 |  |  |  | O=C(c1nn2c(c1Cl)NC(c1cccs1)CC2C(F)(F)F)N(Cc1ccccc1)Cc1ccccc1 (centres unmarked) [SR-33493] | 0 |  | 
5 | 5.2 ± 1 | 2.1 ± 1.3 | 6.8 | 13 |  |  |  | CCOc1ccc(CN(C(=O)[C@H](N)Cc2c[nH]c3ccccc23)C2CC2)cc1 [SR-33511] | 0 |  | 
6 | 4.7 ± 1.1 | 0.47 ± 0.38 | 6 | 28 |  |  |  | CCC(=O)NC(N(Cc1ccccc1)Cc1ccccc1)C(Cl)(Cl)Cl (centres unmarked) [SR-33483] | 0 | selectively and potently inhibit | 

Second part, the molecule before the results:

Row | Compound | Emax [1] [%] | EC50 [1] [µM] | IC50 ([2]; NA = not active) [µM] | IC50 [3, 4] [µM] | IC50 ([2]; *Extrapolated value) [µM] | IC50 [3, 5] [µM] | IC50 against 0.1 nM IL3 [3] | NRG1β Emax ± SE in the presence of candidate ([2]; candidate 30 μM) [AU] | selective and potent inhibition of ErbB4-dependent cell proliferation (in words) [2] | inhibition of NRG1β-stimulated ErbB4-dependent proliferation (in words) ([2]; candidate 30 μM)
7 | Cc1nn(-c2ccccc2)c2c1C(c1ccccc1F)SCC(=O)N2 (centres unmarked) [SR-33510] | 1.2 ± 0.4 | 2 ± 0.8 | 11 | 29 |  |  |  | 0.03 ± 0.01 |  | 
8 | O=[N+]([O-])c1ccc(CN2CCN(C3CCC(c4ccccc4)CC3)CC2)cc1 (centres unmarked) [SR-33497] | 1.8 ± 0.5 | < 0.3 |  |  | 47 | 390 |  | 0.09 ± 0.02 |  | 
9 | O=S(=O)(NCc1cccnc1)c1ccc(Br)cc1Br [SR-33485] | 3 ± 0.9 | < 0.3 | 13 |  |  | 38 |  | 0.01 ± 0.02 |  | 
10 | COc1cc(CNCC2CCNCC2)cc(Cl)c1OCc1ccc(C)cc1 [SR-33507] | 2.9 ± 0.4 | < 0.3 | 0.39 | 0.72 |  |  |  | 0 |  | completely inhibits
11 | CCOC(=O)C1=C(N)OC2=C(C(=O)CC(C)(C)C2)C1C1CCCCC1 (centres unmarked) [SR-33491] | 2.8 ± 0.4 | 0.68 ± 0.36 | 29 |  |  |  | no inhibition | 0.15 ± 0.02 | selectively and potently inhibit | 
12 | O=C1NC(=O)/C(=C\c2ccc(OCc3ccc4ccccc4c3)c(I)c2)N1 [SR-33498] | 1.4 ± 0.4 | 1.5 ± 0.6 | 2.3 | 4.8 |  |  |  | 0 |  | 
13 | CCCOc1ccc(C(=O)C(CCCCC(CN(C)C)C(=O)c2ccc(OCCC)cc2)CN(C)C)cc1 (centres unmarked) [SR-33486] | 5.9 ± 2.8 | < 0.3 | 0.11 | 0.45 |  |  |  | 0 | selectively and potently inhibit | 
14 | COc1ccc(C2CCCN2C(=O)c2c(-c3ccccc3Cl)noc2C)cc1 (centres unmarked) [SR-33509] | 1.4 ± 0.3 | 0.38 ± 0.25 |  |  | 32 |  | fails to inhibit | 0.11 ± 0.02 |  | 
